The text below walks through data of patent US5914329A, “Dimesylate salts of neuropeptide Y ligands” (Pfizer Inc., priority 1997, dated 1999).

Data set [1] is described as follows: Aqueous solubility of salts.
Data set [2] can be described thus: Chemical stability. It counts as physicochemical.
Data set [3] in a line: Hygroscopicity evaluation at high humidities. It counts as physicochemical. Particulars: humidities below 90%.
Data set [4] in a line: Bioavailability in dogs.
A short description of data set [5]: Bioavailability (species not stated). The settings on record: in words.

Counter-ions that a name gives are not always drawn.

For the compound `CCOc1cccc(C2(N3CCN(c4ccccc4)CC3)CCC(C)CC2)c1` (stereo not drawn) [fumarate salt, cis-1-(3-ethoxyphenyl)-1-(4-phenylpiperazin-1-yl)-4-methyl-cyclohexane, reference compound], in data set [1] (water, solubility in water, in water), the solubility (as a rule, the concentration that dissolves in the medium under given conditions) came out at 0.04 mg/mL.

As for `CCOc1cccc(C2(N3CCN(c4ccccc4)CC3)CCC(C)CC2)c1` (stereo not drawn) [form A, Dimesylate salt of cis-1-(3-ethoxyphenyl)-1-(4-phenylpiperazin-1-yl)-4-methylcyclohexane], the Chemical stability result in data set [2] (40° C. in 75% RH) is “no detectable degradation”; in data set [2] (70° C., at ambient humidity), “no detectable degradation”; in data set [2] (light box under fluorescent light) it was “no detectable degradation”. Besides, the hygroscopicity entry in data set [3] is reported as “non-hygroscopic”. Moreover, in data set [1] (water, Aqueous solubility, isolated form A of the dimesylate salt), the solubility amounted to 31 mg/mL.

Turning to `CCOc1cccc(C2(N3CCN(c4ccccc4)CC3)CCC(C)CC2)c1` (stereo not drawn) [dihydrochloride, cis-1-(3-ethoxyphenyl)-1-(4-phenylpiperazin-1-yl)-4-methyl-cyclohexane, reference compound], the “stability in the solid state” value in data set [2] (solid state, in words) is “unstable”. The same compound came in with a bioavailability in dogs in data set [4] of 75%. The solubility in data set [1] (water, water solubility) is 1 mg/mL.

Take `CCOc1cccc(C2(N3CCN(c4ccccc4)CC3)CCC(C)CC2)c1` (stereo not drawn) [compound I, dimesylate salt of cis-1-(3-ethoxyphenyl)-1-(4-phenylpiperazin-1-yl)-4-methyl-cyclohexane]: the stability entry in data set [2] (in words) is on record as “good”. Moreover, the solubility in data set [1] (solubility, dimesylate salt, medium not stated) came out at 31 mg/mL. In addition, the bioavailability entry in data set [5] is “good”.
